Measurements reported in patent US9732089B2, “Substituted pyrazolo[1,5-a]pyrimidines and their use in the treatment of medical disorders” (Lysosomal Therapeutics Inc., priority 2014, dated 2017).
Converted amounts (≈) assume the structure as drawn.

assay: Compound solubility in water; format: physicochemical

| Compound | solubility [µg/mL] |
| --- | --- |
| Cc1cc(C)n2ncc(C(=O)Nc3cc(-c4ccccc4)on3)c2n1 [III-12] | < 1.5 |
| Cc1cc(C)n2ncc(C(=O)NC(C)(C)c3ccc(F)cc3F)c2n1 [III-70] | 2 (≈ 5.81 µM) |
| C#C[C@H]1CC[C@@H](NC(=O)c2cnn3c(C)cc(C)nc23)CC1 [III-15] | 8 (≈ 27 µM) |
| Cc1cc(C)n2ncc(C(=O)Nc3ccc(-c4cccs4)cc3)c2n1 [III-39] | < 1.5 |
| Cc1cc(C)n2ncc(C(=O)Nc3ccc(-n4ccnc4)cc3)c2n1 [III-6] | < 1.5 |
| Cc1cc(C)n2ncc(C(=O)Nc3nc4ccccc4[nH]3)c2n1 [III-28] | < 1.5 |
| COc1ccccc1[C@@H](C)NC(=O)c1cnn2c(C)cc(C)nc12 [III-62] | 2.5 (≈ 7.71 µM) |
| Cc1ccn2ncc(CNc3ccc(-c4ncco4)cc3)c2n1 [III-26] | 39 (≈ 128 µM) |
| C#Cc1ccc(NC(=O)c2cnn3c(C)cc(C)nc23)cc1 [IV-1] | < 1.5 |
| Cc1cc(C)n2ncc(C(=O)Nc3ccc(N=[N+]=[N-])cc3)c2n1 [III-38] | < 1.5 |
| Cc1cc(C)n2ncc(C(=O)N[C@@H](C)c3cccc(Cl)c3)c2n1 [III-63] | 11.9 (≈ 36.2 µM) |
| Cc1cc(C)n2ncc(C(=O)Nc3ccc4nc(C)[nH]c4c3)c2n1 [III-45] | 1.2 (≈ 3.75 µM) |
| Cc1cc(C)n2ncc(C(=O)Nc3ccc(CCCC(=O)O)cc3)c2n1 [III-34] | < 1.5 |
| Cc1cc(C)n2ncc(C(=O)NC(C)(C)c3ccc(Cl)cc3)c2n1 [III-67] | 2.2 (≈ 6.42 µM) |
| Cc1cc(C)n2ncc(C(=O)Nc3ccc(-c4ccco4)cc3)c2n1 [III-55] | < 1.5 |
| Cc1cc(C)n2ncc(C(=O)N[C@H](C)c3ccc(F)cc3)c2n1 [III-65] | 27.6 (≈ 88.4 µM) |
| Cc1ccn2ncc(CNc3ccc(-c4cocn4)cc3)c2n1 [III-25] | 54 (≈ 177 µM) |
| Cc1cc(C)n2ncc(C(=O)Nc3ccc(-c4cnoc4)cc3)c2n1 [III-17] | < 1.5 |
| Cc1cc(C)n2ncc(C(=O)Nc3ccc4oncc4c3)c2n1 [III-47] | 0.9 (≈ 2.93 µM) |
| Cc1cc(C)n2ncc(C(=O)Nc3ccc(N4CCCCC4)cc3)c2n1 [IV-3] | < 1.5 |
| CO[C@H]1CC[C@H](C(C)(C)NC(=O)c2cnn3c(C)cc(C)nc23)CC1 [III-71] | 21.4 (≈ 62.1 µM) |

| Compound | solubility [µg/mL] |
| --- | --- |
| Cc1cc(Cl)n2ncc(C(=O)NC(C)(C)c3ccc(Cl)cc3)c2n1 [III-68] | 2.1 (≈ 5.78 µM) |
| Cc1cc(C)n2ncc(C(=O)Nc3ccc(-c4cnn(C)c4)cc3)c2n1 [III-54] | 2.1 (≈ 6.06 µM) |
| Cc1cc(C)n2ncc(C(=O)Nc3ccc4c(c3)C(C3=NCCN3)CCC4)c2n1 (stereo not drawn) [III-73] | 34 (≈ 87.5 µM) |
| CCCCCOc1ccc(NC(=O)c2cnn3c(C)cc(C)nc23)cc1 [III-32] | < 1.5 |
| Cc1cc(C)n2ncc(C(=O)Nc3ccc(-c4ccccc4)cc3)c2n1 [III-3] | < 1.5 |
| C#Cc1ccc(NC(=O)c2cnn3c(C)cc(C)nc23)c(OC)c1 [III-8] | < 1.5 |
| Cc1cc(C)n2ncc(C(=O)Nc3ccc(-c4cnn(C)c4)nc3)c2n1 [III-23] | < 1.5 |
| COc1ccccc1[C@H](C)NC(=O)c1cnn2c(C)cc(C)nc12 [III-61] | 1.4 (≈ 4.32 µM) |
| Cc1cc(C)n2ncc(C(=O)NC(C)C3CCC(F)(F)CC3)c2n1 (stereo not drawn) [III-66] | 20.6 (≈ 61.2 µM) |
| Cc1cc(C)n2ncc(C(=O)Nc3ccc(-c4cscn4)cc3)c2n1 [III-27] | < 1.5 |
| Cc1cc(C)n2ncc(C(=O)Nc3ccc(C(C)O)cc3)c2n1 (stereo not drawn) [III-35] | 10 (≈ 32.2 µM) |
| Cc1cc(C)n2ncc(C(=O)Nc3ccc(-c4ccco4)nc3)c2n1 [III-22] | < 1.5 |
| C#Cc1ccc(NC(=O)c2cnn3c(C)cc(C)nc23)cn1 [III-2] | < 1.5 |
| Cc1cc(C)n2ncc(C(=O)Nc3ccc4[nH]c(-c5ccco5)nc4c3)c2n1 [III-49] | 0.4 (≈ 1.07 µM) |
| Cc1cc(C)n2ncc(C(=O)Nc3ccc(-c4cc[nH]n4)cc3)c2n1 [III-31] | 33 (≈ 99.3 µM) |
| Cc1cc(C)n2ncc(C(=O)Nc3ccc4c(c3)CCNC4)c2n1 [III-46] | 33.4 (≈ 104 µM) |
| COCC#Cc1ccc(NC(=O)c2cnn3c(C)cc(C)nc23)cc1 [III-4] | < 1.5 |
| CCCCCO[C@H]1CC[C@H](NC(=O)c2cnn3c(C)cc(C)nc23)CC1 [III-59] | 7.1 (≈ 19.8 µM) |
| Cc1cc(C)n2ncc(C(=O)N[C@@H](C)c3ccccc3F)c2n1 [III-60] | 7.2 (≈ 23.1 µM) |
| Cc1cc(Cl)nc2c(C(=O)NC(C)(C)c3ccc(Cl)cc3)cnn12 [III-69] | 5.1 (≈ 14 µM) |
| C#CC1CCC(NC(=O)c2cnn3c(C)cc(C)nc23)CC1 (stereo not drawn) [III-13] | 26 (≈ 87.7 µM) |

| Compound | solubility [µg/mL] |
| --- | --- |
| CO[C@H]1CC[C@@H](C(C)(C)NC(=O)c2cnn3c(C)cc(C)nc23)CC1 [III-72] | 15.1 (≈ 43.8 µM) |
| Cc1cc(C)n2ncc(C(=O)Nc3ccc(Oc4ccccc4)cc3)c2n1 [III-5] | < 1.5 |
| Cc1cc(C)n2ncc(C(=O)Nc3ccc(Cl)c(C(C)Oc4cccnc4)c3)c2n1 (stereo not drawn) [III-75] | 0.1 (≈ 0.237 µM) |
| Cc1cc(C)n2ncc(C(=O)Nc3ccc(-c4ccncc4)cc3)c2n1 [III-56] | < 1.5 |
| C#CCOc1ccc(NC(=O)c2cnn3c(C)cc(C)nc23)cc1 [III-33] | < 1.5 |
| Cc1cc(C)n2ncc(C(=O)Nc3ccc(-c4cocn4)nc3)c2n1 [III-19] | 3 (≈ 8.97 µM) |
| Cc1cc(C)n2ncc(C(=O)Nc3ccc(CCC(=O)O)cc3)c2n1 [III-36] | 59.6 (≈ 176 µM) |
| Cc1cc(C)n2ncc(C(=O)Nc3cc(C4(C(F)(F)F)CC4)on3)c2n1 [III-18] | 2.6 (≈ 7.12 µM) |
| Cc1cc(C)n2ncc(C(=O)Nc3ccc(-c4ncc[nH]4)cc3)c2n1 [III-30] | < 1.5 |
| Cc1cc(C)n2ncc(C(=O)N[C@H](C)c3ccc(Cl)cc3)c2n1 [III-64] | 0.7 (≈ 2.13 µM) |
| Cc1cc(C)n2ncc(C(=O)Nc3ccc4nc(C)sc4c3)c2n1 [III-50] | 2.3 (≈ 6.82 µM) |
| Cc1cc(C)n2ncc(C(=O)NC3CCc4ccccc43)c2n1 (stereo not drawn) [III-79] | 0.8 (≈ 2.61 µM) |
| C#Cc1ccc(NCc2cnn3c(C)cc(C)cc23)cc1 [III-74] | 0.2 (≈ 0.726 µM) |
| Cc1cc(C)n2ncc(C(=O)Nc3ccc4[nH]ncc4c3)c2n1 [III-41] | 0.5 (≈ 1.63 µM) |
| C#C[C@H]1CC[C@H](NC(=O)c2cnn3c(C)cc(C)nc23)CC1 [III-14] | 17.6 (≈ 59.4 µM) |
| Cc1cc(C)n2ncc(C(=O)Nc3ccc(-c4cnsc4)cc3)c2n1 [III-16] | < 1.5 |
| Cc1cc(C)n2ncc(C(=O)Nc3ccc(-c4nccs4)cc3)c2n1 [III-7] | < 1.5 |
| Cc1cc(C)n2ncc(C(=O)Nc3ccc(-c4ncco4)cc3)c2n1 [III-11] | < 1.5 |
| Cc1cc(C)n2ncc(C(=O)Nc3ccc(Cl)c(-c4cnco4)c3)c2n1 [III-53] | < 0.05 |
| Cc1cc(C)n2ncc(C(=O)Nc3ccc(-c4cocn4)cc3)c2n1 [III-10] | < 1.5 |
| Cc1cc(C)n2ncc(C(=O)NC3CCCc4ccccc43)c2n1 (stereo not drawn) [III-58] | 2.6 (≈ 8.11 µM) |

| Compound | solubility [µg/mL] |
| --- | --- |
| Cc1cc(C)n2ncc(C(=O)Nc3ccc(C#CCN(C)C)cc3)c2n1 [IV-2] | 5.1 (≈ 14.7 µM) |
| Cc1cc(C)n2ncc(C(=O)Nc3ccc(-c4ccon4)cc3)c2n1 [III-9] | < 1.5 |
| COCC#Cc1ccc(NCc2cnn3c(C)cc(C)nc23)cc1 [III-29] | 5.4 (≈ 16.9 µM) |
| Cc1cc(C)n2ncc(C(=O)Nc3ccc4cn[nH]c4c3)c2n1 [III-42] | 0.4 (≈ 1.31 µM) |
| Cc1cc(C)n2ncc(C(=O)Nc3ccc4nc(C)oc4c3)c2n1 [III-44] | 0.3 (≈ 0.934 µM) |
| Cc1cc(C)n2ncc(C(=O)Nc3ccc4[nH]c(C)cc4c3)c2n1 [III-40] | 0.3 (≈ 0.939 µM) |
| C#Cc1ccc(NC(=O)c2cnn3c(NC)cc(C)nc23)cc1 [III-78] | < 1.5 |
| C#Cc1ccc(NC(=O)c2cnn3c(C)cc(C)nc23)nc1 [III-1] | < 1.5 |
| Cc1cc(C)n2ncc(C(=O)Nc3ccc(-c4cccs4)nc3)c2n1 [III-20] | < 1.5 |
| Cc1cc(C)n2ncc(CNc3ccc(-c4cocn4)nc3)c2n1 [III-24] | > 64 |
| Cc1cc(C)n2ncc(C(=O)Nc3ccc(C)c(-c4ncco4)c3)c2n1 [III-52] | 0.05 (≈ 0.144 µM) |
| Cc1cc(C)n2ncc(C(=O)Nc3ccc4c(c3)OCO4)c2n1 [IV-4] | 0.6 (≈ 1.93 µM) |
| Cc1cc(C)n2ncc(CNc3ccc(-c4cocn4)cc3)c2n1 [III-37] | 26.1 (≈ 81.7 µM) |
| Cc1cc(C)n2ncc(C(=O)Nc3ccc4oc(-c5ccncc5)nc4c3)c2n1 [III-48] | 0.3 (≈ 0.78 µM) |
| Cc1cc(C)n2ncc(C(=O)Nc3ccc4c(c3)CCC4)c2n1 [IV-5] | 0.5 (≈ 1.63 µM) |
| Cc1cc(C)n2ncc(C(=O)Nc3ccc(-c4ccncc4)nc3)c2n1 [III-21] | < 1.5 |
| Cc1cc(C)n2ncc(C(=O)Nc3ccc(Cl)c(COc4cccnc4)c3)c2n1 [III-51] | 0.06 (≈ 0.147 µM) |
| C#Cc1ccc(NC(=O)c2cnn3c(C)cc(NC)nc23)cc1 [III-77] | 4.2 (≈ 13.8 µM) |
